Experimental data as given in patent US20240158446A1, “CYCLIC COMPOUND HAVING SELECTIVE INHIBITORY ACTION ON KRAS OVER HRAS AND NRAS” (CHUGAI SEIYAKU KABUSHIKI KAISHA, priority 2021, published 2024).
Where two headings read alike, the source gives them in different places.

Assays:
[1] = target: GDP-bound NRAS wild-type protein (Homo sapiens, UniProt P01111); test: Binding to NRAS by surface plasmon resonance (SPR), Single Cycle Kinetics; settings: SPR, GDP-bound NRAS wild-type protein vs GDP-bound KRAS wild-type protein
[2] = target: GDP-bound HRAS wild-type protein (Homo sapiens, UniProt P01112); test: Binding to HRAS by surface plasmon resonance (SPR), Single Cycle Kinetics; settings: SPR, GDP-bound HRAS wild-type protein vs GDP-bound KRAS wild-type protein
[3] = target: GDP-bound KRAS wild-type protein (Homo sapiens, UniProt P01116); test: Binding to KRAS by surface plasmon resonance (SPR), Single Cycle Kinetics; settings: GDP-bound KRAS wild-type protein, read-out: KRAS KD
[4] = SPR Single Cycle Kinetics, 1:1 binding model

Chain of GDP-bound KRAS wild-type protein (P01116 whole entry): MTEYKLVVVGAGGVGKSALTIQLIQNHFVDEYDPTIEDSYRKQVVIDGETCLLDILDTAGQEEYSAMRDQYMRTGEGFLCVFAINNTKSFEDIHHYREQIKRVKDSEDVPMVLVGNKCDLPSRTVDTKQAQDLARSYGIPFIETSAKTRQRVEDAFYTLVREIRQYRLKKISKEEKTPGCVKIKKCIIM
Chain of GDP-bound NRAS wild-type protein (P01111 whole entry): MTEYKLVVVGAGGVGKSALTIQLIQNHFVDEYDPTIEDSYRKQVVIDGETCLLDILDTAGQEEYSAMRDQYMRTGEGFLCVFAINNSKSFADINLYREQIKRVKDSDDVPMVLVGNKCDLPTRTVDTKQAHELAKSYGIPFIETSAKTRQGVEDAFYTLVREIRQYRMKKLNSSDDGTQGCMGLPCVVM
Chain of GDP-bound HRAS wild-type protein (P01112 whole entry): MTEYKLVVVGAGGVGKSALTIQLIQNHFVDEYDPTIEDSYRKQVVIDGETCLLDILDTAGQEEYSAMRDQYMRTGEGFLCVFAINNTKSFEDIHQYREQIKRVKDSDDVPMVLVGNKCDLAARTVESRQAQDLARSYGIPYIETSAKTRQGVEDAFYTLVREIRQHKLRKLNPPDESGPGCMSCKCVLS

Structure (SMILES) | NRAS/KRAS (ratio of KD value for NRAS to KD value for KRAS) [1] | HRAS/KRAS (ratio of KD value for HRAS to KD value for KRAS) [2] | Kd ([3]; SPR, Single Cycle Kinetics) [nM] | NRAS/KRAS (ratio of KD value with respect to NRAS to KD value with respect to KRAS) [1] | HRAS/KRAS (ratio of KD value with respect to HRAS to KD value with respect to KRAS) [2] | Kd [3, 4] [nM]
CCC[C@H]1C(=O)N[C@@H]([C@@H](C)CC)C(=O)N(C2CC2)CC(=O)N(C)[C@H]2C/C=C\CCN(C2=O)[C@@H](CC2CCC(F)(F)CC2)C(=O)N(C)CC(=O)N[C@@H](CCc2ccc(C(F)(F)F)c(OC)c2)C(=O)N2C[C@H](OCC)C[C@H]2C(=O)N(C)C2(CCC2)C(=O)N(C)[C@@H](C2CCCC2)C(=O)N(C)[C@H](C(=O)N(C)C)CC(=O)N1C [PP2352] | A (a compound having 10 or more and less than 20 is denoted as A) | A (a compound having 10 or more and less than 20 is denoted as A) | 0.76 |  |  | 
CC[C@H](C)[C@@H]1NC(=O)[C@H](CC(C)C)N(C)C(=O)C[C@@H](C(=O)N2CCOCC2)N(C)C(=O)[C@H](CC(F)(F)F)N(C)C(=O)C2(CCCC2)NC(=O)[C@@H]2CCCN2C(=O)[C@H](CCc2cc(F)c(C(F)(F)F)c(F)c2)NC(=O)CN(C)C(=O)[C@H](Cc2ccc(C(F)(F)F)cc2)N2CCCC[C@@H](C2=O)N(C)C(=O)CN(C)C1=O [PP0568] |  |  |  | B (a compound having 3 or more and less than 10 is denoted as B) | B (a compound having 3 or more and less than 10 is denoted as B) | 1.1
CCO[C@@H]1C[C@H]2C(=O)NC3(CCC3)C(=O)N(C)[C@@H](C3CCCC3)C(=O)N(C)[C@H](C(=O)N(C)C)CC(=O)N(C)[C@@H](Cc3ccc(F)cc3)C(=O)N[C@@H]([C@@H](C)CC)C(=O)N(C)CC(=O)N(C)[C@H]3CCCCCN(C3=O)[C@@H](Cc3ccc(C(F)(F)F)cc3)C(=O)N(C)CC(=O)N[C@@H](CCc3cc(F)c(C(F)(F)F)c(F)c3)C(=O)N2C1 [PP0936] | B (a compound having 3 or more and less than 10 is denoted as B) | B (a compound having 3 or more and less than 10 is denoted as B) | 0.42 |  |  | 
CCO[C@@H]1C[C@H]2C(=O)NC3(CCC(F)(F)CC3)C(=O)N(C)[C@@H](C3CCCC3)C(=O)N(C)[C@H](C(=O)N3CCOCC3)CC(=O)N(C)[C@@H](CC(C)C)C(=O)N[C@@H]([C@@H](C)CC)C(=O)N(C)CC(=O)N(C)[C@H]3CCCCCN(C3=O)[C@@H](Cc3ccc(C(F)(F)F)cc3)C(=O)N(C)CC(=O)N[C@@H](CCc3cc(F)c(C(F)(F)F)c(F)c3)C(=O)N2C1 [PP0728] |  |  |  | B (a compound having 3 or more and less than 10 is denoted as B) | B (a compound having 3 or more and less than 10 is denoted as B) | 11
CCO[C@@H]1C[C@H]2C(=O)NC3(CCC3)C(=O)N(C)[C@@H](C3CCCC3)C(=O)N(C)[C@H](C(=O)N3CCCC3)CC(=O)N(C)[C@@H](CC)C(=O)N[C@@H]([C@@H](C)CC)C(=O)N(C)CC(=O)N(C)[C@H]3C/C=C\CCN(C3=O)[C@@H](Cc3ccc(C(F)(F)F)cc3)C(=O)N(C)CC(=O)N[C@@H](CCc3cc(F)c(C(F)(F)F)c(F)c3)C(=O)N2C1 [PP1090, (2S,8S,12R,14S,20S,23S,27S,30S,36S,38Z)-20-cyclopentyl-8-[2-[3,5-difluoro-4-(trifluoromethyl)phenyl]ethyl]-12-ethoxy-27-ethyl-4,19,22,26,32,35-hexamethyl-30-[(1S)-1-methylpropyl]-23-(pyrrolidine-1-carbonyl)-2-[[4-(trifluoromethyl)phenyl]methyl]spiro[1,4,7,10,16,19,22,26,29,32,35-undecazatricyclo[34.5.1.0^10,14]dotetracont-38-ene-17,1′-cyclobutane]-3,6,9,15,18,21,25,28,31,34,42-undecone] | AA (a compound having 20 or more is denoted as AA) | A (a compound having 10 or more and less than 20 is denoted as A) | 0.086 |  |  | 
CCO[C@@H]1C[C@H]2C(=O)NC3(CC(C)(C)C3)C(=O)N(C)[C@@H](C3CCCC3)C(=O)N(C)[C@H](C(=O)N(C)C)CC(=O)N(C)[C@@H](CC)C(=O)N[C@@H]([C@@H](C)CC)C(=O)N(C)CC(=O)N(C)[C@H]3C/C=C\CCN(C3=O)[C@@H](Cc3ccc(Cl)cc3F)C(=O)N(C)CC(=O)N[C@@H](CCc3cc(F)c(C(F)(F)F)c(F)c3)C(=O)N2C1 [PP2048] | A (a compound having 10 or more and less than 20 is denoted as A) | B (a compound having 3 or more and less than 10 is denoted as B) | 0.071 |  |  | 
C#CC[C@H]1C(=O)N[C@@H]([C@@H](C)CC)C(=O)N(C)CC(=O)N(C)[C@H]2C/C=C\CCN(C2=O)[C@@H](Cc2ccc(C(F)(F)F)cc2)C(=O)N(C)CC(=O)N[C@@H](CCc2ccc(C(F)(F)F)c(OC)c2)C(=O)N2C[C@@H](C)C[C@H]2C(=O)NC2(CC(C)(C)C2)C(=O)N(C)[C@@H](C2CCCC2)C(=O)N(C)[C@H](C(=O)N(C)CC)CC(=O)N1C [PP2055] | A (a compound having 10 or more and less than 20 is denoted as A) | B (a compound having 3 or more and less than 10 is denoted as B) | 0.18 |  |  | 
